The source of these data is ChEMBL document CHEMBL3352260, “Identification and development of biphenyl substituted iminosugars as improved dual glucosylceramide synthase/neutral glucosylceramidase inhibitors” (J Med Chem, 2014).

In assay [1] the target is Sucrase-isomaltase, intestinal (Homo sapiens, UniProt P14410). Nature of the assay: Inhibition of intestinal sucrase (unknown origin).
For assay [2], the target named is Lactase/phlorizin hydrolase (Homo sapiens, UniProt P09848). Nature of the assay: Inhibition of intestinal lactase (unknown origin).
The target in the next assay is Maltase-glucoamylase (Homo sapiens, UniProt O43451). Nature of the assay: Inhibition of intestinal maltase (unknown origin).
Assay [3] addresses T1, Ceramide glucosyltransferase (Homo sapiens, UniProt Q16739).
T1 sequence (Q16739 whole entry): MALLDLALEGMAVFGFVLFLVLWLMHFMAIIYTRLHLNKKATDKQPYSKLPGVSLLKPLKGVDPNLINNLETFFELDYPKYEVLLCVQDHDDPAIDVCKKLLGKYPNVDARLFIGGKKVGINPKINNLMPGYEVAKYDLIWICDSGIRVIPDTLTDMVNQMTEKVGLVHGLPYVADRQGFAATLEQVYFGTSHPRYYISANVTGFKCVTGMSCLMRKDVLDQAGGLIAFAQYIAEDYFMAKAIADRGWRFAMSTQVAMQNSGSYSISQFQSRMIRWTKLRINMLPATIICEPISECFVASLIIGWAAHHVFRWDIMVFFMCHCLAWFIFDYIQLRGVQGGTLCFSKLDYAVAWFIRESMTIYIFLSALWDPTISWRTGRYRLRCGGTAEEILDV

Assay [4] addresses T1, Ceramide glucosyltransferase. The source holds these as a separate data set.
Assay [5] deals with T2, Lysosomal acid glucosylceramidase (Homo sapiens, UniProt P04062).
T2 sequence (P04062 whole entry): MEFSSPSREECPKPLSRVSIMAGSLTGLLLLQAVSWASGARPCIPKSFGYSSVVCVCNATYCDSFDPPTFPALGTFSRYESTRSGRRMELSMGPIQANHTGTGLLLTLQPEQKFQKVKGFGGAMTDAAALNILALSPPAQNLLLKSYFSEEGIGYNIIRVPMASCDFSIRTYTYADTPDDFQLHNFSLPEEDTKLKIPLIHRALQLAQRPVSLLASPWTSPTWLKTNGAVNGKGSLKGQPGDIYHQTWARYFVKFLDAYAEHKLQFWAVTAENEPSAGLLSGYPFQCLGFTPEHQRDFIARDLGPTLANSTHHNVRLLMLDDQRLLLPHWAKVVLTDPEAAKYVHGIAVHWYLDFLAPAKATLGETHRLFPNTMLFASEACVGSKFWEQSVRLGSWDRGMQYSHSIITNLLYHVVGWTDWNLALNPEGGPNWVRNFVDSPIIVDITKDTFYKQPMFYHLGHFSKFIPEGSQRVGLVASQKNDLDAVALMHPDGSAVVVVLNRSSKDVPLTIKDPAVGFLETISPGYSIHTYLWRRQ

The target of another assay is T3, Beta-glucosidase (Homo sapiens, UniProt Q9HCG7).
T3 sequence (Q9HCG7 whole entry): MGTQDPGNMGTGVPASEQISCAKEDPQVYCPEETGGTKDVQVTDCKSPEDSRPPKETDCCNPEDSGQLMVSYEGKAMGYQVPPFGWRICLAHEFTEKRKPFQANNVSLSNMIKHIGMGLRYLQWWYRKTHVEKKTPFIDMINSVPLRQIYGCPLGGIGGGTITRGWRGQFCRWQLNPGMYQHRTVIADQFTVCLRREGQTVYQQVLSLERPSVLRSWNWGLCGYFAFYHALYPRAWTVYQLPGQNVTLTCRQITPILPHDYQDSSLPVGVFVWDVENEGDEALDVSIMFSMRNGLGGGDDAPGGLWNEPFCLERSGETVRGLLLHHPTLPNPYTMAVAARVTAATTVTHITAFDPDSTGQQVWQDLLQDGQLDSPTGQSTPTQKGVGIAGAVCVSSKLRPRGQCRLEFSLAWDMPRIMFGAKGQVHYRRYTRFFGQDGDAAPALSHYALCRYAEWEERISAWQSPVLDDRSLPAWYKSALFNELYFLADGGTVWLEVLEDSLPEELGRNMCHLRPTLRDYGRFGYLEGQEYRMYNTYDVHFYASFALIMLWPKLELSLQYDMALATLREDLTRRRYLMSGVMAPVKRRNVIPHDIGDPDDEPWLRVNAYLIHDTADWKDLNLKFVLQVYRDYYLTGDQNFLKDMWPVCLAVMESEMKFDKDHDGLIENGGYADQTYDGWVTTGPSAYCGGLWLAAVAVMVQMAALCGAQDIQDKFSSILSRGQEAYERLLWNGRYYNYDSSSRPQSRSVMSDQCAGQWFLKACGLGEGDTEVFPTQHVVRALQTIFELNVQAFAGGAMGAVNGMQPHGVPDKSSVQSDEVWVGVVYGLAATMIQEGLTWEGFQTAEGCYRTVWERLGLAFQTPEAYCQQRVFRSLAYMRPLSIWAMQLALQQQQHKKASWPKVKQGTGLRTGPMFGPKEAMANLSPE

Sequence of Lactase/phlorizin hydrolase (P09848 869-1927 limits assumed): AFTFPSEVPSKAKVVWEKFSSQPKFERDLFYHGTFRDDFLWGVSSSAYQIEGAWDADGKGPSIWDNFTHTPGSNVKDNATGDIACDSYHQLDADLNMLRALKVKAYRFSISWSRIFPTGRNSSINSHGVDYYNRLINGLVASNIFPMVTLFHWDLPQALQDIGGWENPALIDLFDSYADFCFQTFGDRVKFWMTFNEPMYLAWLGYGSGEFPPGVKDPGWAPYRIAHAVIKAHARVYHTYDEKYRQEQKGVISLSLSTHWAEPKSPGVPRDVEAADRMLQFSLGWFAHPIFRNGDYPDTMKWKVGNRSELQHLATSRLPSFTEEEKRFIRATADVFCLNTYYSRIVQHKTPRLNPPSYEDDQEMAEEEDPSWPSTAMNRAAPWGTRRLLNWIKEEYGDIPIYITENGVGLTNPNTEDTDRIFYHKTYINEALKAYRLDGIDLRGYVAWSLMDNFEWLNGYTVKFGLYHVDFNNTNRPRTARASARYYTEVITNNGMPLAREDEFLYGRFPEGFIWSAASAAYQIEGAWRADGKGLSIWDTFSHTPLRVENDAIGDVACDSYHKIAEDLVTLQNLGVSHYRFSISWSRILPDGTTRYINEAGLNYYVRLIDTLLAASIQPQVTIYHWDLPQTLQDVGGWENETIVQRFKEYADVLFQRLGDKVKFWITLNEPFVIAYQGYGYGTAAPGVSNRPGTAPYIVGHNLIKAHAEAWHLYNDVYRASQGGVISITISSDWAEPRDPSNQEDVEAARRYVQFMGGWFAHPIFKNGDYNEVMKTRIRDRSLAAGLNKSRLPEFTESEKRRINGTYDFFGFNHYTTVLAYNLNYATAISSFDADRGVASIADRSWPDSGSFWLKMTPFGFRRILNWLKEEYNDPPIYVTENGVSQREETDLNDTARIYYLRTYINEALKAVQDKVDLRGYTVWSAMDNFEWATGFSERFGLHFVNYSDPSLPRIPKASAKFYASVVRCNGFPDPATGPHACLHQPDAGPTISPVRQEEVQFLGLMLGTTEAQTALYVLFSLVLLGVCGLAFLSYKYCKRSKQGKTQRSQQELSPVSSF
Sequence of Sucrase-isomaltase, intestinal (P14410 2-1007 limits assumed): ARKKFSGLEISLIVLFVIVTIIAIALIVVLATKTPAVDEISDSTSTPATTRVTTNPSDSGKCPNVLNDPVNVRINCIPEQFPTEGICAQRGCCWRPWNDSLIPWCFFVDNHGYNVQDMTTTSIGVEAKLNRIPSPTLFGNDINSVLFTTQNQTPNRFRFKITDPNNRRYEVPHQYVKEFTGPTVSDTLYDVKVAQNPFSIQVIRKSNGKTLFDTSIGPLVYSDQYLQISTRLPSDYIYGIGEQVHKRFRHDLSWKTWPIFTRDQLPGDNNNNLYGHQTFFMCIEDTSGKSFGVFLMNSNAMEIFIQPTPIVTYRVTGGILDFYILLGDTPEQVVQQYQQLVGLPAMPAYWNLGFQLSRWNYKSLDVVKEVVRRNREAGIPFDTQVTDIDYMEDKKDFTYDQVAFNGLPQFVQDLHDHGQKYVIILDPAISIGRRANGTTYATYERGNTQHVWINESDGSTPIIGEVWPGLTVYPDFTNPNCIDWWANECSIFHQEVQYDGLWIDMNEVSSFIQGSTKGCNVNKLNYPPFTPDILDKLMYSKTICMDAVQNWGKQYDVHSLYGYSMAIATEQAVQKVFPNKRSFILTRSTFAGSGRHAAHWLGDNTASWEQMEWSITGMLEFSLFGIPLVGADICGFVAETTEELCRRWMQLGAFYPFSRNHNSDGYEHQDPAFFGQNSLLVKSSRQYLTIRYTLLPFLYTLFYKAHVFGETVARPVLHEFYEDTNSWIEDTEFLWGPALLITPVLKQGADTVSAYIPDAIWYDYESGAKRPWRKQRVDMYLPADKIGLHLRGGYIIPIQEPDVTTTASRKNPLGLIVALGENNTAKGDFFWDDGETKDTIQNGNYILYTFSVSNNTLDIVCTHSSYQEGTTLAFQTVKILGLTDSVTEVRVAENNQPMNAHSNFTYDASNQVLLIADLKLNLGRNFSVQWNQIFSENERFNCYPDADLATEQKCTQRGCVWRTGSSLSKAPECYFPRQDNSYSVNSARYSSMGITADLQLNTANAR
Sequence of Sucrase-isomaltase, intestinal (P14410 1008-1827 limits assumed): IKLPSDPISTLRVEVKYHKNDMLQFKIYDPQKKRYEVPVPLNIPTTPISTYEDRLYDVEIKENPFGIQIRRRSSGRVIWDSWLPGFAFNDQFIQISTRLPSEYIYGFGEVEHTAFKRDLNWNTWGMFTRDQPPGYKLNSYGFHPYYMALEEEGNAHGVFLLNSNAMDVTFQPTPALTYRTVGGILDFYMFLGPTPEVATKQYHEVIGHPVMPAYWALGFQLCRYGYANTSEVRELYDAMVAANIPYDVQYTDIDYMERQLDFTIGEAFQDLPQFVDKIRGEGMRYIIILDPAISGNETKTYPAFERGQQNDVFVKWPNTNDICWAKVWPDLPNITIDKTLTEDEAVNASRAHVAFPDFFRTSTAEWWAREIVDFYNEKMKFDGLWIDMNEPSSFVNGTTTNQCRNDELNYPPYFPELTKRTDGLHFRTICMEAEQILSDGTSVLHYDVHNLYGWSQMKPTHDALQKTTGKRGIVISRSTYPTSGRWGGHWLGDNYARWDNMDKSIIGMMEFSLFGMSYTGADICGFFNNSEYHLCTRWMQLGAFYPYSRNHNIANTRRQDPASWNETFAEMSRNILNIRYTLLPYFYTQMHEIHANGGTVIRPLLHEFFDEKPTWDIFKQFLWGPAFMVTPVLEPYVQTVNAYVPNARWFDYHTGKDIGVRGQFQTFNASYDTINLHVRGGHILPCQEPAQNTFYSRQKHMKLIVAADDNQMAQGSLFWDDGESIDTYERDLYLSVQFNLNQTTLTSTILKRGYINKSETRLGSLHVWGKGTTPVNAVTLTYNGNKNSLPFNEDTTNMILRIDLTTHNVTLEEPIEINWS

`OC[C@H]1[C@@H](O)[C@H](O)[C@@H](O)CN1CC(F)(F)CCCOCc1ccc(-c2ccccc2)cc1`: the IC50 in assay [1] is greater than 100 µM; in assay [2], greater than 100 µM; against Maltase-glucoamylase, greater than 100 µM; in assay [3], 0.02 µM.
For the compound `CC(C)=CCC/C(C)=C/CC/C(C)=C/CCOCCCCCN1C[C@H](O)[C@@H](O)[C@H](O)[C@H]1CO`, the IC50 entry was “Not Active” in assay [4], 2.5 µM in assay [5] and 100 nM at Beta-glucosidase.
The corresponding values for `OC[C@@H]1[C@@H](O)[C@H](O)[C@@H](O)CN1CCCC/C=C\C12CC3CC(CC(C3)C1)C2` are “Not Active”, 0.5 µM and 5 nM.
For `OC[C@@H]1[C@@H](O)[C@H](O)[C@@H](O)CN1CCCCCCC12CC3CC(CC(C3)C1)C2`, in that order: “Not Active”, 0.06 µM and 10 nM.
The corresponding values for `OC[C@H]1[C@@H](O)[C@H](O)[C@@H](O)CN1CCCCCOCc1cc2ccccc2c2ccccc12` are “Not Active”, 600 µM and 200 nM.
`OC[C@H]1[C@@H](O)[C@H](O)[C@@H](O)CN1CCCCCCC12CC3CC(CC(C3)C1)C2`: the concentration for half-maximal inhibition (IC50) entry in assay [4] was “Not Active”; in assay [5] it was 25 µM; at Beta-glucosidase, 20 nM.
On to `OC[C@H]1[C@@H](O)[C@H](O)[C@@H](O)CN1CCCCCOCc1cccc(-c2ccccc2)c1`, for which the IC50 in assay [1] is 100 µM; in assay [2] it was 60 µM; on Maltase-glucoamylase, greater than 100 µM; in assay [3], 0.07 µM.
Consider `OC[C@@H]1[C@@H](O)[C@H](O)[C@@H](O)CN1CCCCCOCc1ccc(-c2ccccc2)c(F)c1`, for which the IC50 in assay [1] was found to be 0.4 µM; in assay [2], 20 µM; against Maltase-glucoamylase, 3 µM; against Beta-glucosidase it was 0.08 nM.
Take `OC[C@@H]1[C@@H](O)[C@H](O)[C@@H](O)CN1CC(F)(F)CCCOCc1ccc(-c2ccccc2)cc1`: the concentration for half-maximal inhibition (IC50) in assay [1] is 35 µM; in assay [2], greater than 100 µM; against Maltase-glucoamylase, greater than 100 µM; in assay [3], 1.25 µM; in assay [5], 0.125 µM; against Beta-glucosidase, 10 nM.
For the compound `C[C@H](OCCCCCN1C[C@H](O)[C@@H](O)[C@H](O)[C@H]1CO)c1ccc(-c2ccccc2)cc1`, the half-maximal inhibitory concentration (IC50) in assay [1] stood at 0.25 µM; in assay [2], 9 µM; against Maltase-glucoamylase it was 2.5 µM; in assay [5], 400 µM; at Beta-glucosidase it was 3 nM.
Consider `OC[C@H]1[C@@H](O)[C@H](O)[C@@H](O)CN1CCCCCOCc1ccc(-c2ccccc2)cc1C(F)(F)F`, for which the IC50 was greater than 100 µM in assay [1], 125 µM in assay [2] and greater than 100 µM at Maltase-glucoamylase.
For `OC[C@@H]1[C@@H](O)[C@H](O)[C@@H](O)CN1CCCCCOCc1cccc(-c2ccccc2)c1`, the 50% inhibitory concentration (IC50) worked out at 0.2 µM in assay [1], 20 µM in assay [2] and 1.5 µM on Maltase-glucoamylase.
For `OC[C@@H]1[C@@H](O)[C@H](O)[C@@H](O)CN1CCCCCOCc1ccc(-c2ccccc2)cc1F`, the IC50 is 0.25 µM in assay [1], 30 µM in assay [2], 2.5 µM against Maltase-glucoamylase and 0.08 nM against Beta-glucosidase.
Consider `OC[C@@H]1[C@@H](O)[C@H](O)[C@@H](O)CN1CCCCCOCc1ccc(-c2ccccc2)c(C(F)(F)F)c1`, for which the IC50 in assay [1] amounted to 1.25 µM; in assay [2] it was 45 µM; against Maltase-glucoamylase it was 7 µM; against Beta-glucosidase, 0.08 nM.
For the compound `C[C@@H](OCCCCCN1C[C@H](O)[C@@H](O)[C@H](O)[C@H]1CO)c1ccc(-c2ccccc2)cc1`, the 50% inhibitory concentration (IC50) in assay [1] was 0.5 µM; in assay [2] it was 35 µM; at Maltase-glucoamylase, 4 µM; in assay [5] it was 0.3 µM; at Beta-glucosidase, 3 nM.
With `OC[C@H]1[C@@H](O)[C@H](O)[C@@H](O)CN1CCCC/C=C\C12CC3CC(CC(C3)C1)C2`, the 50% inhibitory concentration (IC50) result in assay [4] is “Not Active”; in assay [5], 12 µM; against Beta-glucosidase, 8 nM.
For the compound `OC[C@@H]1[C@@H](O)[C@H](O)[C@@H](O)CN1CCCC(F)(F)COCc1ccc(-c2ccccc2)cc1`, the IC50 in assay [1] was determined as 0.4 µM; in assay [2] it was 27 µM; on Maltase-glucoamylase, 9 µM; in assay [3], 0.06 µM; in assay [5] it was 0.3 µM; against Beta-glucosidase, 1 nM.
Turning to `OC[C@@H]1[C@@H](O)[C@H](O)[C@@H](O)CN1CCCCCOCc1cc2ccccc2c2ccccc12`, the IC50 entry in assay [4] is “Not Active”; in assay [5], 10 µM; at Beta-glucosidase, 100 nM.
With `OC[C@H]1[C@@H](O)[C@H](O)[C@@H](O)CN1CCCCCOCc1ccc(-c2ccccc2)c(F)c1` [NIZUBAGLUSTAT], the figures for the half-inhibitory concentration (IC50) (in assay [1]; in assay [2]; against Maltase-glucoamylase) were greater than 100 µM, 50 µM and greater than 100 µM, respectively.

The term IC50 denotes the point on the concentration scale where inhibition reaches its midpoint. Low values mean higher potency, high ones lower potency.
